Source: the NIST ThermoML archive (doi:10.1016/j.fluid.2016.02.031)

Assay: refractive index (Na D-line) (dimensionless); xn = mol fraction of the nth substance listed
Conditions: 100 kPa, Liquid, Standard Abbe refractometry

c1ccncc1 [pyridine] + CCC(C)=O
refractive index
Conditions	288.15 K	293.15 K	298.15 K	303.15 K	308.15 K	313.15 K	318.15 K	323.15 K	328.15 K	333.15 K
x1 = 0.1006	1.39357	1.39094	1.3883	1.38577	1.38311	1.38031	1.37775	1.37505	1.37234	1.36942
x1 = 0.2019	1.40586	1.40321	1.40056	1.39791	1.39527	1.3926	1.38992	1.38721	1.38453	1.38158
x1 = 0.3002	1.41813	1.41548	1.41282	1.41015	1.40751	1.40483	1.40214	1.39946	1.39666	1.39394
x1 = 0.4004	1.43104	1.42836	1.42568	1.42298	1.4203	1.4176	1.41489	1.41218	1.40942	1.40669
x1 = 0.4999	1.44407	1.44138	1.43868	1.43597	1.43325	1.43052	1.42779	1.42502	1.42228	1.41944
x1 = 0.597	1.45674	1.45401	1.4513	1.44857	1.44585	1.44311	1.44039	1.43765	1.43488	1.43213
x1 = 0.6998	1.4705	1.46776	1.46502	1.46227	1.45952	1.45678	1.45404	1.4513	1.44853	1.44586
x1 = 0.7945	1.48331	1.48055	1.47779	1.47504	1.47226	1.4695	1.46675	1.46402	1.46124	1.45866
x1 = 0.8962	1.49734	1.49455	1.49176	1.48899	1.4862	1.48343	1.48066	1.47793	1.47513	1.4726
x1 = 1	1.51204	1.50923	1.50636	1.50355	1.50076	1.49796	1.49522	1.49245	1.48962	1.48708

OCCCO [propan-1,3-diol] + CCC(C)=O
refractive index
Conditions	288.15 K	293.15 K	298.15 K	303.15 K	308.15 K	313.15 K	318.15 K	323.15 K	328.15 K	333.15 K
x1 = 0.1052	1.38816	1.3857	1.38318	1.38072	1.3783	1.37575	1.37324	1.3706	1.36798	1.36512
x1 = 0.2004	1.39411	1.39177	1.38937	1.38701	1.38469	1.38226	1.37988	1.37728	1.37479	1.37205
x1 = 0.3002	1.40019	1.39791	1.39561	1.39336	1.39119	1.38891	1.38656	1.38422	1.38186	1.3793
x1 = 0.4003	1.40646	1.4043	1.40216	1.40002	1.39791	1.39575	1.39357	1.39132	1.38903	1.38657
x1 = 0.4999	1.41261	1.41059	1.40857	1.40654	1.40452	1.40246	1.40036	1.39822	1.39608	1.3938
x1 = 0.5992	1.41868	1.4168	1.4149	1.41298	1.41104	1.4091	1.40712	1.40508	1.40306	1.40096
x1 = 0.6992	1.42474	1.42295	1.42116	1.41936	1.41754	1.41566	1.41382	1.41196	1.41006	1.4081
x1 = 0.7989	1.43046	1.42881	1.42712	1.42544	1.42374	1.42201	1.4203	1.41857	1.4168	1.41497
x1 = 0.8998	1.43588	1.43434	1.43277	1.43123	1.42967	1.42812	1.42654	1.42496	1.42335	1.42166
x1 = 1	1.44073	1.43932	1.43792	1.43654	1.43513	1.43375	1.43232	1.43087	1.42945	1.42803
